{"source": "patent US20250263370A1", "about": "(Tay Therapeutics Limited, priority 2022, published 2025)", "key": {"[1]": {"assay": "Intrinsic clearance in liver microsomes, rat", "format": "in vitro ADME", "conditions": "rat, liver microsomes, pH 7.4, rat liver microsomes, Method 1; read-out: Half-Life (T1/2) (min), Rat", "how_it_was_run": "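Compound at 1 μM (0.1–1% DMSO) incubated at 37 °C with mouse or rat liver microsomes (0.5 mg/mL protein) and 1 mM NADPH in PBS pH 7.4; samples taken up to 60 min and quenched in cold acetonitrile. LC-MS/MS of percent remaining gave half-life and CLint; no-NADPH controls run.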"}, "[2]": {"assay": "Sprague-Dawley rat pharmacokinetics, IV and PO cassette dosing", "format": "in vivo", "how_it_was_run": "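Male Sprague-Dawley rats (2 per arm) given up to 5 compounds in cassette, 1 mg/kg IV and 5 mg/kg PO, formulated in 5% DMSO/40% PEG-400/55% water. Plasma from serial blood samples was acetonitrile-precipitated and analysed by LC/MS/MS against matrix-matched standard curves.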"}, "[3]": {"assay": "Plasma concentration of Example 101 in UUO rats by LC-MS/MS", "format": "in vivo, rat", "conditions": "for concentration at 4 h: rat, plasma, po, 30 mg/kg", "description": "Serum for blood biochemistry analysis was collected into centrifuge tubes without coagulant four hours after final dosing. Blood plasma samples from group 3 was collected into tubes with K2EDTA four hours after final dosing. At the conclusion of the study (end of the 14-day period), animals were euthanized. Kidney tissue was collected four hours after final dosing. Ligated side kidney was divided into three copies ⅓ fix into 10% formalin for H&E analysis, ⅓ into RNA for PCR analysis of tissue biomarkers Col1a1, TGF-b1, MCP-1, IL-1b, IL-6, IL-17, TNF-a, and Timp1, and ⅓ for hydroxyproline assay analyzed by ELISA. RNA was extracted from tissue using the RNeasy mini kit (Qiagen). RNA concentration was measured using a NanoDrop One Spectrophotometer (ThermoFisher) and converted to cDNA using a High-Capacity RNA-to-cDNA kit (Invitrogen). RT-PCR was performed to measure levels of mRNA of different targets using TaqMan® Gene Expression Master Mix and TaqMan® probe/primer sets on a QuantStudio 6, Real-Time PCR System (ThermoFisher). Fold change in target gene expression was determined using the ΔΔCt method.\nSamples were analyzed on a Raptor Biphenyl 2.7 μm 50×2.1 mm column. Solution A in the mobile phase was 95% water (0.1% formic acid) and solution B was 95% acetonitrile in water (0.1% formic acid), injection volume was 20 μL, and flow rate was 0.5 mL/min.\nTo prepare samples for analysis, serial concentrations were prepared by diluting the stock solution of analyte with a 50% acetonitrile in water solution. 5 μL working solutions (5, 10, 20, 50, 100, 500, 1000, 5000, and 10000 ng/mL) were added to 50 μL of the blank SD rat plasma to achieve calibration standards of −0.5 to 1000 ng/mL (0.5, 1, 2, 5, 10, 50, 100, 500, and 1000 ng/mL) in a total volume of 55 μL. […]\n55 μL of standards, 55 μL of QC samples and 55 μL of unknown samples (50 μL of unknown rat plasma with 5 μL of blank solution) were added to 200 μL of acetonitrile containing IS mixture for precipitating protein respectively. […] 20 μL of diluted supernatant was injected into the LC/MS/MS system for quantitative analysis."}}, "note": "Where “and” joins values, the source holds several entries; their conditions need not be identical. Equal values may be shown once. Read-outs that look alike come from different tables or passages of the source."}
{"smiles": "CNC(=O)c1[nH]c(C(=O)NC2CCC2)cc1O[C@@H](C)c1ccccc1", "note": "(stereo in doubt) [Example 101, N^5-cyclobutyl-N^2-methyl-3-(1-phenylethoxy)-1H-pyrrole-2,5-dicarboxamide]", "values": [{"measurement": "half-life at 1 μM", "setting": "[1]", "value": 58, "unit": "min"}, {"measurement": "PO F", "setting": "[2]; PO 5 mg/kg, Method 1", "value": 66, "unit": "%"}, {"measurement": "half-life", "setting": "[2]; male, Sprague-Dawley, rat, plasma, iv, 1 mg/kg, IV 1 mg/kg, Method 1, read-out: IV T1/2 (converted)", "value": 54, "unit": "min"}, {"measurement": "Plasma concentration of Example 101", "setting": "[3]; male SD rats, oral, 4 h after final treatment, individual test subjects", "value": "485 ng/mL and 959 ng/mL and 760 ng/mL and 859 ng/mL and 906 ng/mL and 1160 ng/mL and 665 ng/mL and 941 ng/mL"}, {"measurement": "concentration at 4 h", "setting": "[3]; male, SD, Mean plasma concentration of Example 101, male SD rats, oral, 4 h after final treatment, mean of 8 subjects", "value": 846, "unit": "ng/mL"}, {"measurement": "concentration at 4 h", "setting": "[3]; UUO rats, 30 mg/kg oral, four hours after final treatment, read-out: mean plasma concentration", "value": 846, "unit": "ng/mL"}]}
